Source: US20220146526A1, “METHOD FOR EVALUATING SAMPLE, ANALYSIS METHOD, METHOD FOR DETECTING DEGRADED SAMPLE, MARKER FOR DETECTING DEGRADED BLOOD PLASMA SAMPLE, AND MARKER FOR DETECTING DEGRADED SERUM SAMPLE” (SHIMADZU CORPORATION, priority 2019, published 2022)
Values joined by “and” are separate entries in the source; they are usually repeats but may differ in a detail not shown here. Equal entries are not always repeated.

Tests used:
Type in all cases: physicochemical, human
[1] = GC/MS of serum sample: time from blood collection to centrifugation (Table G); settings: blood collection to centrifugation; for Rate of increase or decrease: detection intensity relative to 1 at 15 minutes; for Increase or decrease: detection intensity
Summary of the method: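 Blood was held for varying times before centrifugation (room temperature, 3500 rpm, 5 min); serum was frozen, then methoxymated and trimethylsilylated for GC/MS with electron ionization in MRM mode. Values are detection intensities relative to the 15-minute collection-to-centrifugation condition, set as 1.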

[2] = GC/MS of serum sample: time from centrifugation to isolation (Table H); parameters: key to Rate of increase or decrease / Rate of increase or decrease (first value, increase): detection intensity relative to 1 at 30 min centrifugation-to-isolation; settings: for Rate of increase or decrease: detection intensity relative to 1 at 30 minutes, after 1 hour; for Increase or decrease: detection intensity, after 1 hour vs 30 minutes
Summary of the method: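 Blood was centrifuged at room temperature, 3500 rpm, 5 min, and the vessel left at room temperature for 30 min, 1 h or 6 h before serum isolation. Serum was methoxymated, trimethylsilylated and analysed by GC/MS with electron ionization in MRM mode; intensities expressed relative to the 30-min condition (=1).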

[3] = GC/MS of serum sample: number of times of freezing and thawing (Table I); parameters: key to Rate of increase or decrease / Rate of increase or decrease (first value, increase): detection intensity relative to 2 freeze-thaw cycles = 1; settings: for Rate of increase or decrease: detection intensity relative to 1 at 2 times; for Number of times when compound is affected: detection intensity changed by 30% or more vs 2 times of freezing and thawing
Summary of the method: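 Serum was isolated after centrifugation at room temperature (3500 rpm, 5 min), frozen, and put through 2, 4, 6 or 10 freeze–thaw cycles. Samples were methoxymated and trimethylsilylated, then run by electron-ionization GC/MS in MRM mode on a BPX5 column (60 to 330 °C). Detection intensity is given relative to the 2-cycle sample, set as 1.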

[4] = GC/MS of blood plasma sample: number of times of freezing and thawing (Table C); settings: for Rate of increase or decrease: detection intensity relative to 1 at 2 times; for Increase or decrease: detection intensity
Summary of the method: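 EDTA plasma from a healthy subject, cooled within 1 min or after 5+ min, centrifuged 4 °C/3000 rpm/15 min, frozen, then freeze-thawed 2, 4, 6 or 10 times. Methoximated, trimethylsilylated samples run by GC/MS (BPX5 column, EI, MRM). Values are detection intensity relative to 2 freeze-thaw cycles set as 1.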

[5] = GC/MS of blood plasma sample: time from blood collection to cooling of blood (Table B); parameters: key to Rate of increase or decrease / Rate of increase or decrease (first value, increase): detection intensity relative to 1 at cooling time ≤1 min; settings: for Increase or decrease: detection intensity, blood collection to cooling 5 minutes or more vs 1 minute or less; for Rate of increase or decrease (second value, decrease) / Rate of increase or decrease (first value, increase): different from individual to individual, relative to 1 at 1 minute or less, collection to cooling 5 minutes; for Rate of increase or decrease (second value, decrease): individuals with decrease; for Rate of increase or decrease (first value, increase): individuals with increase
Summary of the method: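 Blood drawn at room temperature into EDTA tubes, mixed, then cooled at 4° C. within 1 minute or less versus 5 minutes or more before centrifugation (4° C., 3000 rpm, 15 minutes). Plasma was frozen, methoxymated and trimethylsilylated, and analysed by EI GC/MS in MRM mode. Values are detection intensity relative to the ≤1 minute condition.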

[6] = GC/MS of blood plasma sample: time from blood collection to centrifugation (Table A); settings: for Increase or decrease: detection intensity; for Increase or decrease / Rate of increase or decrease: blood collection to centrifugation; for Rate of increase or decrease (second value, decrease) / Rate of increase or decrease (first value, increase): different from individual to individual, relative to 1 at 15 minutes, collection to centrifugation; for Rate of increase or decrease (second value, decrease): individuals with decrease; for Rate of increase or decrease (first value, increase): individuals with increase; for Rate of increase or decrease: detection intensity relative to 1 at 15 minutes
Summary of the method: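 EDTA blood from a healthy subject was cooled at 4° C, centrifuged at 4° C, 3000 rpm, 15 minutes, and plasma was frozen. After methoxymation and trimethylsilylation, samples ran on GC/MS (BPX5 column, 60-330° C gradient, electron ionization, MRM). Intensity is relative to 15 minutes from collection to centrifugation.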

[7] = serum, GC/MS, freezing and thawing 4 times
[8] = detection intensity, serum, GC/MS, freezing and thawing 4 times vs 2 times
[9] = freezing and thawing 4 times vs 2 times
[10] = 10 times of freezing and thawing
[11] = serum sample, GC/MS, detection intensity vs 2 times of freezing and thawing

Structure (SMILES) | Rate of increase or decrease ([1]; after 4 hours) | Increase or decrease ([1]; after 4 hours vs 15 minutes) | Rate of increase or decrease [2] | Increase or decrease [2] | Rate of increase or decrease [3, 7] | Increase or decrease [3, 8] | Increase or decrease [5] | Rate of increase or decrease (second value, decrease) [5] | Rate of increase or decrease (first value, increase) [5] | Increase or decrease ([6]; after 4 hours vs 15 minutes) | Rate of increase or decrease (second value, decrease) ([6]; after 4 hours) | Rate of increase or decrease (first value, increase) ([6]; after 4 hours) | Rate of increase or decrease ([1]; after 8 hours) | Increase or decrease ([1]; after 8 hours vs 15 minutes) | Increase or decrease [4, 9] | Rate of increase or decrease [3, 10] | Number of times when compound is affected ([3]; serum sample, GC/MS) | Increase or decrease [3, 11] | also measured
O=C(O)/C=C\C(=O)O [Maleic acid] | 1.65 | Increase | 1.43 | Increase | 2.62 | Increase | Different from individual | 0.54 | 1.38 | Different from individual | 0.47 | 1.75 |  |  |  |  |  |  | Rate of increase or decrease ([4]; freezing and thawing 10 times): 2.12; Increase or decrease ([4]; freezing and thawing 10 times vs 2 times): Increase
O=C(CO)[C@H](O)[C@H](O)[C@H](O)CO [Psicose] |  |  | 0.57 | Decrease | 0.54 | Decrease | Different from individual | 0.43 and 0.27 | 3.24 and 1.94 | Increase |  |  | 0.65 | Decrease | Different from individual |  |  |  | Rate of increase or decrease ([3]; serum, GC/MS, freezing and thawing 6 times): 1.30; Increase or decrease ([3]; detection intensity, serum, GC/MS, freezing and thawing 6 times vs 2 times): Increase; Rate of increase or decrease (second value, decrease) ([4]; different from individual to individual, individuals with decrease, relative to 1 at 2 times, freezing and thawing 4 times): 0.70; Rate of increase or decrease (first value, increase) ([4]; different from individual to individual, individuals with increase, relative to 1 at 2 times, freezing and thawing 4 times): 1.77; Rate of increase or decrease ([6]; after 4 hours): 4.33
OC[C@H]1O[C@@](CO)(O[C@H]2O[C@H](CO)[C@@H](O)[C@H](O)[C@H]2O)[C@@H](O)[C@@H]1O [Sucrose] | 18.00 | Increase | 2.12 | Increase |  |  | Different from individual | 0.69 | 2.20 | Different from individual | 0.69 | 2.53 |  |  | Decrease | 0.64 | 10 times | Decrease | Rate of increase or decrease ([4]; freezing and thawing 4 times): 0.53
OC[C@H]1O[C@H](O[C@H]2O[C@H](CO)[C@@H](O)[C@H](O)[C@H]2O)[C@H](O)[C@@H](O)[C@@H]1O [Trehalose] |  |  | 1.45 | Increase |  |  | Different from individual | 0.58 | 5.01 |  |  |  | 1.50 | Increase |  | 0.69 | 10 times | Decrease | Rate of increase or decrease ([4]; freezing and thawing 6 times): 1.98; Increase or decrease ([4]; freezing and thawing 6 times vs 2 times): Increase; Rate of increase or decrease ([6]; after 8 hours): 0.56; Increase or decrease ([6]; after 8 hours vs 15 minutes): Decrease
